Earlier results on one molecule are cited in US20190000834A1, “INJECTABLE COMPOSITION AND A METHOD OF TREATMENT OF THE PHYSICAL ADDICTION” (VERITA RESEARCH PTE LTD, priority 2015, published 2019).

Series [1] deals with amphetamine dependence. The following applies: outpatients.
Series [2] deals with methamphetamine self-administering animals.
The subject of series [3] is amphetamine dependence. Particulars: Naltrexone 50 mg along with CBT, 12 weeks.
The subject of series [4] is amphetamine dependent patients. The following applies: naltrexone 50 mg.

SMILES strings stand for the structures.

For the molecule `O=C1CC[C@@]2(O)[C@H]3Cc4ccc(O)c5c4[C@@]2(CCN3CC2CC2)[C@H]1O5` [Naltrexone, (4R,4aS,7aR,12bS)-3-(cyclopropylmethyl)-4a,9-dihydroxy-2,4,5,6,7a,13-hexahydro-1H-4,12-methanobenzofuro [3,2-e] isoquinoline-7-one], the amphetamine use result in the series on amphetamine dependence [1] was “effective in reducing amphetamine use”. Also, the “cue- and drug-induced methamphetamine seeking” value in series [2] is “attenuated cue—but not drug-induced methamphetamine”. Moreover, the tolerability entry in the series on amphetamine dependence [3] is reported as “well tolerated”. Further, in series [4], the craving result is reported as “significantly blocked” and the “subjective effects produced by dexamphetamine” value is “significantly attenuated”.
